Data set [1] has as its system primary hippocampal neurons. Put plainly: Lysosomal acidification in wild-type hippocampal neurons, LysoSensor DND-189 live imaging. The format is cell-based, mouse. Particulars: 1 uM. How it is done: Primary hippocampal neurons were seeded in an 8-well ibidi chamber pre-coated with Poly-I and laminin. 75.000 neurons were seeded pr. well. After 5 days in vitro the neurons were stimulated for 4, 8 or 24 hours with peptide P1 at 1 uM in neurobasal A with B27. After stimulation, the medium was changed to pre-warmed (37° C.) neurobasal A containing 1 uM of LysoSensor probe DND-189 (an acidotropic probes that accumulates in acidic organelles as the result of protonation) and incubated for 30 min. at 37° C. in a 5% C02 atmosphere. Hereafter, the media was changed to pre-warmed FluoroBrite Medium and the neurons were imaged in Olympus microscopy system. Pictures were taken of the lysosomes and processed using the ScanR imaging software to give fluorescence (intensity) of each lysosomal vesicle. The summed total intensity of all lysosomes was calculated and divided by the total number of neurons imaged yielding the total intensity of lysosomes per neuron. Student's t-test was used for statistical analysis.

The test system of data set [2] is pCREB, TFEB, LAMP1, p62/SQSTM1, PGRN, PGC1a. Briefly: Pathway engagement in striatum of wild-type mice after SC injection, western blotting. Type of data set: in vivo, mouse. Particulars: 13 mg/kg SC. As for the experimental part:
Wild-type mice were injected with 13 mg/kg of P1 (SEQ ID NO: 1) subcutaneously in 4.38 mM L-His, 140 mM NaCl, 0.2% Tween-20 and 1500 IU hyaluronidase (pH 6.15). The mice were sacrificed at timepoints between 2-8 hours after injection. Striatal tissue was isolated and the tissue was lysed using a TissueLyser in RIPA lysis buffer containing cOmplete and phosSTOP. Levels of pCREB, TFEB, downstream lysosomal gene products LAMP1, p62/SQSTM1, PGRN and mitochondrial master regulator PGC1a were validated by western blotting. All proteins were normalized to beta-actin levels.
A general note: Immunoblotting shows a protein as a band on a membrane.

Data set [3] has as its system R6/2 mice (mouse model of Huntington's). Briefly: Stereological analysis of regional brain volume in R6/2 mice. The format is in vivo. The note with it: 13 mg/kg SC daily, 8 to 12 weeks of age. As for the experimental part: The brain was cut using a fine razor blade and one hemisphere (right) was directly put into ice-cold 4% PFA in PBS for 24 hours, and then transferred to a 30% sucrose PBS solution for 48 hours and stored at 4° C.
The PFA fixed hemispheres were imbedded in TissueTec and sliced on a cryostat at 50 μm thickness. For stereology, every 5th section was sampled using the principle of systematic random sampling, giving a section sampling fraction (SSF)=1/5.
The sections were mounted on chrome-gelatin-coated slides and Nissl stained with a 0.25% thionine solution (thionin, Sigma T3387). Image acquisition and analysis was performed using the newCAST system (Visiopharm, Horsholm, Denmark). This system consists of an Olympus light microscope (Olympus BX50, Olympus, Denmark) modified for stereology with a digital camera (PixeLINK PLA686C, Canada) and a motorized microscope stage (Prior H138 with controller H29, Cambridge, UK). The newCAST software was interfaced to the digital camera superimposing the counting frames on the live images.
The volume estimation was carried out using the Cavalieri principle for quantifying the total volume of the hippocampus, striatum and mid-part of the cortex (6 slides used for this) using a 4× lens.

The nature of data set [4]: Plasma, whole brain and cerebrospinal fluid concentrations after SC or IV injection, LC MS/MS. The format is in vivo, mouse. Particulars: for half-life: mouse, in vivo, read-out: T½ in brain (converted). As for the experimental part: 13 mg/kg and 52 mg/kg of P1 were either subcutaneously or intravenously injected in wild-type mice in either 4.38 mM L-His, 140 mM NaCl, 0.2% Tween-20 and 1500 IU hyaluronidase (for SC, pH 6.15) or saline (IV). Both plasma, whole brain and cerebrospinal fluid concentrations were validated at different timepoints of 0.25-4 hours by LC MS/MS.
We further explored whether delivery to the CSF and brain would be dose-dependent by the SC route. P1 (SEQ ID NO: 1) were subcutaneously injected in wild-type mice in different concentrations of 0-52 mg/kg in 4.38 mM L-His, 140 mM NaCl, 0.2% Tween-20 and 1500 IU hyaluronidase (pH 6.15). Levels of P1 were validated in both plasma, whole brain and cerebrospinal fluid after 15 min injection by LC MS/MS.
13 mg/kg of P1 (SEQ ID NO: 1) were subcutaneously injected in wild-type mice in different formulations in either PBS buffer, in buffer containing 4.38 mM L-His, 140 mM NaCl, 0.2% Tween-20 and 1500 IU hyaluronidase (pH 6.15) or in buffer with 4.38 mM L-His, 140 mM NaCl, 0.2% Tween-20. Levels of P1 were validated in both plasma and whole brain after 15 and 30 min. of injection by LC MS/MS.

The subject of data set [5] is HTT in GM01650E fibroblasts. Put plainly: Total HTT levels in fibroblasts from a healthy individual (GM01650E). Type of data set: cell-based, human. The note with it: 1 uM, healthy cell line, 2-4 hours. As for the experimental part: GM04719 was seeded at 30,000-50,000 per well in a 96-well. The following day, the cells were treated with 1 uM of P1 and incubated at 37° C. and 5% CO2 at timepoints 0-24 hours. Hereafter, the cells were lysed in RIPA lysis buffer containing cOmplete cocktail protease inhibitor. Total Huntingtin levels were analysed using antibody mab2166 (Sigma-Aldrich) by western blotting and normalized to beta-actin. To determine, whether P1 also clears the healthy allele, we further assessed levels of total HTT in fibroblast derived from a healthy individual (GM01650E), bought from Coriell Biobank.

For data set [6] the following is noted: 2 μM, up to 60 minutes.
Protocol: S9 fractions from 5 different species were incubated with 2 μM P1 (SEQ ID NO: 1) or 7-Ethoxycoumarin (positive control for clearance) and necessary reactants for up to 60 minutes at 37° C. Reactions were stopped and samples were analysed by LCMS.
The test system of the next data set is TDP-43(ΔNLS)-YFP. Put plainly: Clearance of cytoplasmic TDP-43 in HEK293 cells, western blotting. Type of data set: cell-based. The note with it: dose-range of P1, 24 hours. How it is done:
100,000 HEK293T cells were seeded in a 24-well plate per well. At 60% confluency the cells were transfected with a form of TDP-43-YFP with a mutated nuclear localization signal (TDP-43(ΔNLS)-YFP) to restrict TDP-43 to the cytosol, which is the pathogenic localization in frontotemporal dementia^67. After 24 hours, the cells were treated with a dose-range of peptide P1 and further incubated for another 24 hours. The cells were subsequently lysed in lysis buffer containing DTT and cOmplete cocktail protease inhibitor. The levels of TDP-43 were validated by western blotting using an anti-GFP antibody and the levels were normalized to beta-actin.

The mark [7] stands for this setting: SC 0-52 mg/kg, 15 min after injection.

Where two headings read alike, the source gives them in different places. Where a SMILES comes first, the peptide text is derived from it.

For `CSCC[C@@H]1NC(=O)[C@H](C(C)C)NC(=O)[C@H](CC(=O)O)NC(=O)[C@H](CCC(=O)O)NC(=O)[C@H](CCC(=O)O)NC(=O)[C@H](Cc2c[nH]cn2)NC(=O)[C@H](CCC(=O)O)NC(=O)[C@H](C(C)C)NC(=O)[C@@H]2CCCN2C(=O)[C@H](CCC(=O)O)NC(=O)[C@H]([C@@H](C)O)NC1=O` [Peptide P1, [MTEPVEHEEDV]] (cyclo(MTEPVEHEEDV)), the figures for the “lysosomal intensity (lysosomal acidification)” value in data set [1] (4 hours), in data set [1] (8 hours) and in data set [1] (24 hours) were “lysosomal intensity was increased”, “lysosomal intensity was increased” and “no difference”, respectively. In addition, the pCREB in striatum result was “significantly activates CREB” in data set [2] (after 2 hours) and “no significant effect” in data set [2] (at 4 hours). Further, in data set [2] (at 6 hours), the PGC1a in striatum result is recorded as “significantly increased”. For the same compound, the PGRN in striatum entry in data set [2] (at 6 hours) was “significantly increased”. In addition, the “p62/SQSTM1 levels in striatum (autophagic flux)” value in data set [2] (at 8 hours following injection) is listed as “significantly lowered”. For the same compound, the LAMP1 in striatum entry in data set [2] (between 2-4 hours) is “significantly increased”. Moreover, the TFEB in striatum result in data set [2] (between 2-4 hours) is recorded as “significantly increased”. Moreover, the cortical volume result in data set [3] is “tendency of increasing”. The hippocampal volume entry in data set [3] was “tendency of increasing”. In addition, in data set [4] (13 mg/kg SC, plasma and whole brain, 15 and 30 min), the “difference between L-His buffer with or without hyaluronidase” value was “no significant difference”. Moreover, in data set [4] (13 mg/kg SC, PBS, L-His buffer with or without hyaluronidase, 15 and 30 min), the “levels in plasma and whole brain in different formulations” value was “measurable in the plasma and brain in all formulations”. Besides, the maximal brain-plasma ratio in data set [4] (IV delivery) came out at 0.034; in data set [4] (SC delivery), 0.032. For the same compound, in data set [4] (setting [7]), the “levels in brain and CSF” value was “measurable in the brain and CSF at all concentrations”. Further, in data set [4] (setting [7]), the “levels in plasma, brain and CSF versus dose” value was “increased with the dosage”. Moreover, the half-life in data set [4] (IV delivery, saline) was 13.9 min; in data set [4] (SC delivery, L-His buffer with hyaluronidase), 19 min. For the same compound, the “total HTT levels” value in data set [5] is reported as “increasing the total HTT levels”. For the same compound, the “clearance and stability in liver S9 fractions” value in data set [6] (5 different species) is “low clearance and high stability”. The “stability in mouse and human S9 liver fractions” value in data set [6] (mouse and human) is recorded as “some stability is lost”. Moreover, the “cytoplasmic TDP-43 levels” value in the data set on TDP-43(ΔNLS)-YFP was “decreased the pathogenic cytoplasmic form of TDP-43”.

The values are drawn from patent publication US20230312652A1, “NOVEL PEPTIDES AND USES THEREOF” (Aarhus Universitet, priority 2020, published 2023).
